Results from patent publication US20150238446A1, “NEW TREATMENT OF FISH WITH A NANOSUS PENS ION OF LUFENURON OR HEXAFLUMURON” (Novartis AG, priority 2012, published 2015).

Columns and labels:
[1] = Stability testing of oily lufenuron or hexaflumuron formulations; assay type: physicochemical; conditions: in organic solvents/media
From the text: WO99/063824 discloses the use of hexaflumuron and lufenuron, both members of the chemical class of benzoylureas, in the control of sea lice infestations on fish. Hexaflumurone is applied to the fish orally, via bath treatment or via injection, lufenuron is proposed exclusively for injection. Oily injectable formulations of the two active ingredients, in particular those comprising, in addition, a vaccine against furunculosis, show activity against sea lice for 128 days or in case of hexaflumuron even longer. […] The resulting low shelf life make them unsuited for commercial use. […] In addition, as both hexaflumuron and lufenuron have a strong tendency to aggregate and form sediments in an aqueous environment, the handling of water-based injectables is difficult and cumbersome. So it is not surprising that no commercial lufenuron or hexaflumuron sea lice product has made it to the market until now.

[2] = cited from earlier work
sea lice = conditions: cited from earlier work; for duration of activity against sea lice: oily injectable formulations, in particular with a vaccine against furunculosis (WO99/063824)
L. salmonis = assay: In vivo test in Atlantic salmon, natural sea lice infestation, pre-adult and adult count; conditions: nanosuspension injected
Method: Three groups of 150 salmon (Atlantic Salmon, S. salar) of an average weight 200 g were injected with an amount of the above nanosuspension (a) equivalent to 25 mg (cage 1), 50 mg (cage 2) or 75 mg lufenuron per kg salmon (cage 3). A fourth cage containing 150 salmon of average weight 200 g was added to the study as a non-treated control group.
After treatment, the fish were exposed to natural sea lice infestation for a period of 8 months. During the study the water temperature varied between 4 and 12° C. Sea louse numbers were assessed on a monthly basis until month 8. Counts were conducted on 10 fish at each sampling occasion. The numbers of pre-adults and adult L. salmonis were recorded for each fish. Efficacy was calculated using the formula:
% Efficacy=100−(100×mean of treatment group/mean of control).

Compound: O=C(NC(=O)c1c(F)cccc1F)Nc1cc(Cl)c(OC(F)(F)C(F)F)c(Cl)c1 [hexaflumuron, 1-[3,5-dichloro-4-(1,1,2,2-tetrafluoroethoxyl)phenyl]-3-(2,6-difluorobenzoyl)urea]
- chemical stability of the active ingredient [1]: chemically instable
- water-solubility [2]: ≤ 0.027 µg/mL
- performance in vivo against sea lice (sea lice; hexaflumuron containing aqueous suspension (WO99/063824)): poor performance
- duration of activity against sea lice (sea lice): > 128 days

Compound: O=C(NC(=O)c1c(F)cccc1F)Nc1cc(Cl)c(OC(F)(F)C(F)C(F)(F)F)cc1Cl (centres unmarked) [lufenuron, N-{[2,5-Dichlor-4-(1,1,2,3,3,3-hexafluorpropoxyl)phenyl]carbamoyl}-2,6-difluorbenzamid]
- chemical stability of the active ingredient [1]: chemically instable
- water-solubility [2]: ≤ 0.06 µg/mL
- duration of activity against sea lice (sea lice): 128 days
- % efficacy pre-adult and adult count (L. salmonis; 25 mg/kg lufenuron, 1 month): 100%
- % efficacy pre-adult and adult count (L. salmonis; 25 mg/kg lufenuron, 2 month): 95%
- % efficacy pre-adult and adult count (L. salmonis; 25 mg/kg lufenuron, 3 month): 100%
- % efficacy pre-adult and adult count (L. salmonis; 25 mg/kg lufenuron, 4 month): 96%
- % efficacy pre-adult and adult count (L. salmonis; 25 mg/kg lufenuron, 5 month): 100%
- % efficacy pre-adult and adult count (L. salmonis; 25 mg/kg lufenuron, 6 month): 81%
- duration of complete protection of the fish against sea lice infestation (L. salmonis; 25 mg/kg): at least 5 month
- duration of complete protection of the fish against sea lice infestation (L. salmonis; 50 mg/kg fish, until the end of the study): 8 month
- % efficacy pre-adult and adult count (L. salmonis; 50 mg/kg lufenuron, 1 month): 90%
- % efficacy pre-adult and adult count (L. salmonis; 50 mg/kg lufenuron, 2 month): 100%
- % efficacy pre-adult and adult count (L. salmonis; 50 mg/kg lufenuron, 3 month): 100%
- % efficacy pre-adult and adult count (L. salmonis; 50 mg/kg lufenuron, 4 month): 100%
- % efficacy pre-adult and adult count (L. salmonis; 50 mg/kg lufenuron, 5 month): 97%
- % efficacy pre-adult and adult count (L. salmonis; 50 mg/kg lufenuron, 6 month): 96%
- % efficacy pre-adult and adult count (L. salmonis; 50 mg/kg lufenuron, 7 month): 98%
- % efficacy pre-adult and adult count (L. salmonis; 50 mg/kg lufenuron, 8 month): 98%
- % efficacy pre-adult and adult count (L. salmonis; 75 mg/kg lufenuron, 1 month): 100%
- % efficacy pre-adult and adult count (L. salmonis; 75 mg/kg lufenuron, 2 month): 100%
- % efficacy pre-adult and adult count (L. salmonis; 75 mg/kg lufenuron, 3 month): 100%
- % efficacy pre-adult and adult count (L. salmonis; 75 mg/kg lufenuron, 4 month): 96%
- % efficacy pre-adult and adult count (L. salmonis; 75 mg/kg lufenuron, 5 month): 100%
- % efficacy pre-adult and adult count (L. salmonis; 75 mg/kg lufenuron, 6 month): 100%
- % efficacy pre-adult and adult count (L. salmonis; 75 mg/kg lufenuron, 7 month): 98%
- % efficacy pre-adult and adult count (L. salmonis; 75 mg/kg lufenuron, 8 month): 100%
- duration of complete protection of the fish against sea lice infestation (L. salmonis; 75 mg/kg, until the end of the study): 8 month
